We go through seven molecules from US6087358A (priority 1997, dated 2000).

For assay [1], the system named is Mycobacterium tuberculosis. The note with it: Ashtekar et al. 1993; cited from earlier work.
Assay [2] relates to Mycobacterium bovis BCG (recombinant strain). The experiment in a line: microbe, parasite or virus in culture. The format is cell-based. As to conditions: Mycobacterium tuberculosis variant bovis BCG, BCG, 144 h; 6 days 37° C.; read-out: MIC, column A, 3(S) compounds.
For assay [3], the system named is Clostridium difficile ATCC 17857. The experiment in a line: In vitro inhibition of Clostridium difficile (Oxyrase broth microdilution MIC). As to conditions: Clostridioides difficile, ATCC17857; Clostridium difficile ATCC 17857, Oxyrase broth; read-out: MIC, column D, 3(S) compounds. Type of assay: cell-based. A general note: Dilution methods test growth across graded concentrations, often in twofold steps.

Assay [4] has as its system Mycobacterium tuberculosis H37Rv (sensitive strain). The experiment in a line: MIC as determined by the BACTEC method, sensitive strain. As to conditions: M. tuberculosis H37Rv (sensitive strain), read-out: MIC, column B, 3(S) compounds. The format is cell-based.
Assay [5] has as its system Helicobacter pylori. The experiment in a line: In vitro inhibition of Helicobacter pylori (broth microdilution MIC). The note with it: Helicobacter pylori.
Assay [6] has as its system Mycobacterium bovis (rBCG). Type of assay: in vivo. As to conditions: 10 days.
In assay [7] the test system is Helicobacter felis. The experiment in a line: In vivo activity against Helicobacter felis in mice (urease test of stomach biopsy). On the set-up: species or system in female CD-1 mice. As to conditions: 50 mg/kg three times daily oral gavage, CM-2, four days; vehicle and untreated 100. On the procedure:
Female CD-1 mice weighing 30 grams were infected by oral gavage with 10^8 -10^9 colony forming units of H. felis. This infection process was repeated two, and four days, thereafter. Colonization of the stomach was allowed to occur over a seven day period. Animals were segregated into groups of five, and were treated three times daily by oral gavage with 50 mg/kg of test drugs prepared in the CM-2 formulation vehicle (Example 52). Treatment continued for four days. One group of animals received an equal volume of formulation vehicle alone, to ensure that the vehicle had no effect on the Helicobacter infection. A separate untreated control group was also included.
All animals were then sacrificed, the stomachs were removed, opened, and the contents washed out. A five millimeter diameter biopsy was removed, and transferred to a urease test solution containing a pH-sensitive dye, which was then incubated at 37° C. incubator for 24 hours. A blue or purple coloration in this test solution signifies a positive reaction, indicating the continued presence of viable Helicobacter bacteria; a negative result is indicated by a yellow coloration. Viable Helicobacter bacteria produce a urease enzyme which converts urea, of which there is an abundant supply in the stomach (from saliva and gastric juices), into bicarbonate and ammonia, which are strong bases. This mechanism is considered to provide conditions more amenable to the survival of Helicobacter in the otherwise acidic conditions prevalent in the stomach.

Assay [8] deals with Helicobacter pylori Strain 4187E. The experiment in a line: In vivo activity against Helicobacter pylori strain 4187E in mice. The arrangement: species or system in outbred female white mice. As to conditions: oral gavage, four days. The source says: Outbred female white mice (20 grams) were infected by oral gavage with 10^7 -10^8 colony forming units of H. pylori strain 4187E (originally isolated from a patient with a duodenal ulcer). […] Treatment continued for four days. Clarithromycin, administered at the same concentration and for the same duration, was included as a positive control. One group of animals also received an equal volume of formulation vehicle alone, to provide a negative control.
Five days after cessation of treatment, all animals were sacrificed, the stomachs were removed, opened, and the contents washed out. The entire mucosal surface was then spread evenly over the surface of an agar plate containing antibiotics appropriate for the prevention of growth of microorganisms other than Helicobacter spp. After seven days incubation under microaeropilic conditions at 37° C., culture plates were evaluated for bacterial growth.

Assay [9] has as its system Mycobacterium tuberculosis (rMTB). The experiment in a line: In vivo antimycobacterial activity against M. tuberculosis (rMTB) in spleens of mice. The arrangement: species or system Mycobacterium tuberculosis Erdman, in female BALB/c mice. As to conditions: 25 mg/kg daily oral gavage, CM-2, 10 days, control 422,866 (PA-824, 636, 1297) or 362,274 (others).
Assay [10] shares this test system. The experiment in a line: In vivo antimycobacterial activity against M. tuberculosis (rMTB) in lungs of mice. As to conditions: 25 mg/kg daily oral gavage, CM-2, 10 days, control 117,258 (PA-824, 636, 1297) or 22,751 (others). On the set-up: species or system Mycobacterium tuberculosis Erdman, in female BALB/c mice.
Where [11] appears, read: 72 h, read-out: MIC against Helicobacter pylori, strain 17 (Table 5A).
Where [12] appears, read: 72 h, read-out: MIC against Helicobacter pylori, strain 19 (Table 5A).
[13] abbreviates: 72 h, read-out: MIC against Helicobacter pylori, strain 20 (Table 5A).
[14] abbreviates: 72 h, read-out: MIC against Helicobacter pylori, strain 40 (Table 5A).
Where [15] appears, read: 72 h, read-out: MIC against Helicobacter pylori, strain 43 (Table 5A).
Where [16] appears, read: 72 h, read-out: MIC against Helicobacter pylori, strain 76 (Table 5A).
The mark [17] stands for this setting: ATCC43504, 72 h, read-out: MIC against Helicobacter pylori, strain ATCC 43504 (Table 5A).

≈ marks a conversion by molar mass, not a printed value. Read-outs that look alike come from different tables or passages of the source.

As for `CCC1Cn2cc([N+](=O)[O-])nc2O1` (centres unmarked) [CGI 17341, 2-ethyl-5-nitro-2,3-dihydro[2,1-b]imidazo-oxazole], in [1], the “activity against Mycobacterium tuberculosis” value is reported as “exhibit activity against Mycobacterium tuberculosis”.

As to `CC(C)=CCC/C(C)=C/CO[C@@H]1COc2nc([N+](=O)[O-])cn2C1` [PA-626], the MIC was 0.5 µg/mL (≈ 1.56 µM) in assay [2], 0.8 µg/mL (≈ 2.49 µM) in assay [3] and 0.13 µg/mL (≈ 0.405 µM) in assay [4].

On to `O=[N+]([O-])c1cn2c(n1)OC[C@@H](OCc1ccc(OCc3ccccc3)cc1)C2` [PA-647], for which the MIC in [5] (setting [11]) is greater than 25 µg/mL; in assay [5] (setting [12]), 0.2 µg/mL (≈ 0.524 µM); in assay [5] (setting [13]), 0.2 µg/mL (≈ 0.524 µM); in assay [5] (setting [14]), 0.4 µg/mL (≈ 1.05 µM); in [5] (setting [15]), 0.4 µg/mL (≈ 1.05 µM); in assay [5] (setting [16]), 3.12 µg/mL (≈ 8.18 µM). The MIC was greater than 25 µg/mL in [5] (setting [17]), 0.03 µg/mL (≈ 0.0787 µM) in assay [2], 12.5 µg/mL (≈ 32.8 µM) in [3] and 0.03 µg/mL (≈ 0.0787 µM) in [4]. Moreover, in assay [6], the “Average RLUs, M. bovis (rBCG) in spleens” value is on record as 19,916 RLUs. Also, in assay [7], the “% Survival” value came to 100%.

`CC(C)(C)c1ccc(CO[C@@H]2COc3nc([N+](=O)[O-])cn3C2)cc1` [PA-653]: in assay [6], the “Average RLUs, M. bovis (rBCG) in spleens” value is given as 229,080 RLUs. Moreover, the values for the MIC in assay [2], in [3] and in assay [4] were 0.06 µg/mL (≈ 0.181 µM), 3.12 µg/mL (≈ 9.42 µM) and 0.03 µg/mL (≈ 0.0905 µM), respectively.

Turning to `CCCCc1ccc(CO[C@@H]2COc3nc([N+](=O)[O-])cn3C2)cc1` [PA-822], the “% Eradication” value in [8] (once daily 25 mg/kg), in assay [8] (twice daily 5 mg/kg) and in assay [8] (twice daily 50 mg/kg) was 0% each time. Also, the MIC in [5] (setting [11]) amounted to 25 µg/mL (≈ 75.4 µM); in [5] (setting [12]), 0.2 µg/mL (≈ 0.604 µM); in [5] (setting [13]), 0.2 µg/mL (≈ 0.604 µM); in assay [5] (setting [14]) it was 0.2 µg/mL (≈ 0.604 µM); in assay [5] (setting [15]), 0.4 µg/mL (≈ 1.21 µM); in assay [5] (setting [16]) it was 6.25 µg/mL (≈ 18.9 µM). Besides, the MIC is greater than 25 µg/mL in assay [5] (setting [17]), 0.06 µg/mL (≈ 0.181 µM) in assay [2] and 12.5 µg/mL (≈ 37.7 µM) in assay [3]. For the same molecule, the “% Survival” value in assay [7] is recorded as 100%.

As for `O=C(Nc1ccc(OC(F)(F)F)cc1)O[C@@H]1COc2nc([N+](=O)[O-])cn2C1` [PA-1297, 4-(Trifluoromethoxy)phenyl Carbamate of 3S Hydroxy-6-nitro-2H-3,4-dihydo-[2-1b]imidazopyran], the “% Eradication” value in [8] (once daily 25 mg/kg), in assay [8] (twice daily 5 mg/kg) and in assay [8] (twice daily 50 mg/kg) was 0% each time. In addition, the MIC in [2] stood at 0.015 µg/mL (≈ 0.0386 µM); in assay [3], 0.78 µg/mL (≈ 2.01 µM). Moreover, the “Average RLUs, M. tuberculosis (rMTB) in spleens” value in assay [9] was 66,473 RLUs. Moreover, the “Average RLUs, M. tuberculosis (rMTB) in lungs” value in assay [10] is 3,354 RLUs. Moreover, the “% Survival” value in assay [7] is 100%.

As for `O=C(N[C@@H]1COc2nc([N+](=O)[O-])cn2C1)OCc1ccc(OC(F)(F)F)cc1` [PA-1343], the MIC in [5] (72 h, read-out: MIC against Helicobacter pylori, strain B40, Met-S, Clar-S (Table 5B)) turned out to be 0.8 µg/mL (≈ 1.99 µM); in assay [5] (72 h, read-out: MIC against Helicobacter pylori, strain B76, Met-R, Clar-S (Table 5B)) it was 12 µg/mL (≈ 29.8 µM); in [5] (72 h, read-out: MIC against Helicobacter pylori, strain C1649, Met-R, Clar-R (Table 5B)), 12 µg/mL (≈ 29.8 µM); in [5] (72 h, read-out: MIC against Helicobacter pylori, strain C11403, Met-S, Clar-R (Table 5B)), 1.5 µg/mL (≈ 3.73 µM); in assay [5] (72 h, read-out: MIC against Helicobacter pylori, strain C19765 (Table 5B)) it was 12 µg/mL (≈ 29.8 µM); in assay [5] (72 h, read-out: MIC against Helicobacter pylori, strain RD26, Met-S, Clar-S (Table 5B)), 3 µg/mL (≈ 7.46 µM). Also, the MIC in assay [5] (72 h, read-out: MIC against Helicobacter pylori, strain rd26, Met-S, Clar-S (Table 5B)) came to 2 µg/mL (≈ 4.97 µM); in assay [5] (ATCC43504, 72 h, read-out: MIC against Helicobacter pylori, strain ATCC 43504, Met-R, Clar-S (Table 5B)) it was 10 µg/mL (≈ 24.9 µM); in assay [5] (ATCC43526, 72 h, read-out: MIC against Helicobacter pylori, strain ATCC 43526, Met-R, Clar-S (Table 5B)), 12 µg/mL (≈ 29.8 µM); in [5] (ATCC43579, 72 h, read-out: MIC against Helicobacter pylori, strain ATCC 43579, Met-S, Clar-S (Table 5B)), 1.5 µg/mL (≈ 3.73 µM); in [5] (ATCC43629, 72 h, read-out: MIC against Helicobacter pylori, strain ATCC 43629, Met-S, Clar-S (Table 5B)), 3 µg/mL (≈ 7.46 µM); in assay [2], 0.015 µg/mL (≈ 0.0373 µM). Moreover, the “Average RLUs, M. tuberculosis (rMTB) in spleens” value in assay [9] is 51,928 RLUs. Besides, the “Average RLUs, M. tuberculosis (rMTB) in lungs” value in assay [10] is on record as 606 RLUs. The “% Survival” value in [7] was 00%.
